Measured values: paper PMC6009903, “Synthesis, biological activity and multiscale molecular modeling studies for coumaryl-carboxamide derivatives as selective carbonic anhydrase IX inhibitors” (Journal of Enzyme Inhibition and Medicinal Chemistry, 2017)

Experiments:
[1] = target: hCA II (Homo sapiens, UniProt P00918); experiment: CA inhibition assay, stopped-flow CO2 hydration
Excerpt: (§1) An SX.18 MV-R Applied Photophysics (Oxford, UK) stopped-flow instrument has been used to assay the catalytic/inhibition of various CA isozymes[51]. […] The inhibition constants were obtained by non-linear least-squares methods using the Cheng–Prusoff equation, as reported earlier[39] and represent the mean from at least three different determinations. All CA isozymes used here were recombinant proteins obtained as reported earlier by our group[27]^,[32]^,[40]^,[52].

[2] = target: hCA IX (Homo sapiens, UniProt Q16790); experiment: CA inhibition assay, stopped-flow CO2 hydration
Excerpt: as §1

[3] = target: hCA I (Homo sapiens, UniProt P00915); experiment: CA inhibition assay, stopped-flow CO2 hydration
Excerpt: as §1

[4] = target: hCA VII (Homo sapiens, UniProt P43166); experiment: CA inhibition assay, stopped-flow CO2 hydration
hCA VII, sequence (P43166 whole entry): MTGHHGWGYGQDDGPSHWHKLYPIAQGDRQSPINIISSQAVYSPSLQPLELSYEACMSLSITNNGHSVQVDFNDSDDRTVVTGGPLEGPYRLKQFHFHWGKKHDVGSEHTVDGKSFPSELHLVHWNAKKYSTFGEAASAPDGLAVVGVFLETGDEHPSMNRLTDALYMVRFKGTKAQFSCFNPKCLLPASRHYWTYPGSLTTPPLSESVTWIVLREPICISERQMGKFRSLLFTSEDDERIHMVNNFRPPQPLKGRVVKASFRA
Excerpt: as §1

hCA I, sequence (P00915 whole entry): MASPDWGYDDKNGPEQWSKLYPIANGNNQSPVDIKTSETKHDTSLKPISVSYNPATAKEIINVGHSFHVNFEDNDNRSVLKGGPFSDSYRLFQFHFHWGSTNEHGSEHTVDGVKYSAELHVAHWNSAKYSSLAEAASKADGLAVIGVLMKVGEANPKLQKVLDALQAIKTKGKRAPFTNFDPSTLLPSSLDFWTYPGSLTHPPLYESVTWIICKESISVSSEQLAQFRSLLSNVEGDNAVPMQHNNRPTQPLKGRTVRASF

Row | SMILES | melting point [°C] | Ki [1] [µM] | Ki [2] [µM] | Ki [3] [µM] | Ki [4] [µM]
1 | O=C(NC(=S)NCCN1CCNCC1)c1cc2ccccc2oc1=O [e19, 2-oxo-N-((2-(piperazin-1-yl)ethyl)carbamothioyl)-2H-chromene-3-carboxamide] | 163 to 165 | – | – | – | –
2 | O=C(NC(=S)NCCC1=CCCCC1)c1cc2ccccc2oc1=O [e13, N-((2-(cyclohex-1-en-1-yl)ethyl)carbamothioyl)-2-oxo-2H-chromene-3-carboxamide] | 142 to 143 | > 10 | 0.18 | > 10 | > 10
3 | COc1ccc(CCNC(=S)NC(=O)c2cc3ccccc3oc2=O)cc1OC [e14, N-((3,4-dimethoxyphenethyl)carbamothioyl)-2-oxo-2H-chromene-3-carboxamide] | 148 to 149 | > 10 | 0.196 | > 10 | > 10
4 | O=C(NC(=S)NCCN1CCCC1)c1cc2ccccc2oc1=O [e11, 2-oxo-N-((2-(pyrrolidin-1-yl)ethyl)carbamothioyl)-2H-chromene-3-carboxamide] | 131 to 132 | > 10 | 0.108 | > 10 | > 10
5 | CN1CCN(C(=S)NC(=O)c2cc3ccccc3oc2=O)CC1 [e8, N-(4-methylpiperazine-1-carbonothioyl)-2-oxo-2H-chromene-3-carboxamide] | 162 to 164 | > 10 | 0.128 | > 10 | > 10
6 | CN(C)CCCNC(=S)NC(=O)c1cc2ccccc2oc1=O [e20, N-((3-(dimethylamino)propyl)carbamothioyl)-2-oxo-2H-chromene-3-carboxamide] | 100 | > 10 | 0.182 | > 10 | > 10
7 | CCCNC(=S)NC(=O)c1cc2ccccc2oc1=O [e2, 2-oxo-N-(propylcarbamothioyl)-2H-chromene-3-carboxamide] | 123 | > 10 | 0.286 | > 10 | > 10
8 | CN1CCN(NC(=S)NC(=O)c2cc3ccccc3oc2=O)CC1 [e17, N-((4-methylpiperazin-1-yl)carbamothioyl)-2-oxo-2H-chromene-3-carboxamide] | 204 | > 10 | 0.259 | > 10 | > 10
9 | O=C(NC(=S)NN1CCOCC1)c1cc2ccccc2oc1=O [e16, N-(morpholinocarbamothioyl)-2-oxo-2H-chromene-3-carboxamide] | 180 to 182 | > 10 | 2.59 | > 10 | > 10
10 | O=C(NC(=S)NC1Cc2ccccc2C1)c1cc2ccccc2oc1=O [e10, N-((2,3-dihydro-1H-inden-2-yl)carbamothioyl)-2-oxo-2H-chromene-3-carboxamide] | – | > 10 | 0.13 | > 10 | > 10
11 | O=C(NC(=S)N1CCCC1)c1cc2ccccc2oc1=O [e6, 2-oxo-N-(pyrrolidine-1-carbonothioyl)-2H-chromene-3-carboxamide] | 162 to 163 | > 10 | 0.298 | > 10 | > 10
12 | CCN(CC)C(=S)NC(=O)c1cc2ccccc2oc1=O [e3, N-(diethylcarbamothioyl)-2-oxo-2H-chromene-3-carboxamide] | 143 | > 10 | 0.376 | > 10 | > 10
13 | O=C(NC(=S)NCc1ccc2c(c1)OCO2)c1cc2ccccc2oc1=O [e15, N-((benzo[d][1,3]dioxol-5-ylmethyl)carbamothioyl)-2-oxo-2H-chromene-3-carboxamide] | 188 to 190 | > 10 | 0.184 | > 10 | > 10
14 | CC(C)N(C(=S)NC(=O)c1cc2ccccc2oc1=O)C(C)C [e4, N-(diisopropylcarbamothioyl)-2-oxo-2H-chromene-3-carboxamide] | 150 to 151 | > 10 | 0.351 | > 10 | > 10
15 | O=C(NC(=S)N1CCCCC1)c1cc2ccccc2oc1=O [e7, 2-oxo-N-(piperidine-1-carbonothioyl)-2H-chromene-3-carboxamide] | 175 to 176 | > 10 | 0.202 | > 10 | > 10
16 | O=C(NC(=S)NN1CCCCC1)c1cc2ccccc2oc1=O [e18, 2-oxo-N-(piperidin-1-ylcarbamothioyl)-2H-chromene-3-carboxamide] | 206 | > 10 | 0.387 | > 10 | > 10
17 | CNC(=S)NC(=O)c1cc2ccccc2oc1=O [e1, N-(methylcarbamothioyl)-2-oxo-2H-chromene-3-carboxamide] | 146 to 148 | > 10 | 0.323 | > 10 | > 10
18 | O=C(NC(=S)N1CCOCC1)c1cc2ccccc2oc1=O [e9, N-(morpholine-4-carbonothioyl)-2-oxo-2H-chromene-3-carboxamide] | 123 to 125 | > 10 | 0.136 | > 10 | > 10
19 | O=C(NC(=S)NCCN1CCOCC1)c1cc2ccccc2oc1=O [e12, N-((2-morpholinoethyl)carbamothioyl)-2-oxo-2H-chromene-3-carboxamide] | 136 to 138 | > 10 | 0.224 | > 10 | > 10
20 | O=C(NC(=S)NC1CCCCC1)c1cc2ccccc2oc1=O [e5, N-(cyclohexylcarbamothioyl)-2-oxo-2H-chromene-3-carboxamide] | – | > 10 | 0.115 | > 10 | > 10
